Reference: patent US10494366B2, “Pesticidally active amide heterocyclic derivatives with sulphur containing substituents” (Syngenta Participations AG, priority 2014, dated 2019)

Key:
Format in all cases: in vivo
[1] = system: Plutella xylostella (diamond back moth); assay: Example B3: Plutella xylostella, treated artificial diet; details: 120 h, application rate 200 ppm, L2 larvae, 5 days after infestation, read-out: effect in at least one of the two categories (mortality or growth inhibition)
Protocol: (§1) 24-well microtiter plates with artificial diet were treated with aqueous test solutions prepared from 10,000 ppm DMSO stock solutions by pipetting. After drying, the plates were infested with L2 larvae (10 to 15 per well). The samples were assessed for mortality and growth inhibition in comparison to untreated samples 5 days after infestation.

[2] = system: Diabrotica balteata (corn root worm); assay: Example B4: Diabrotica balteata, sprayed maize sprouts; details: 96 h, application rate 200 ppm, L2 larvae, 4 days after infestation, read-out: effect in at least one of the two categories (mortality or growth inhibition)
Protocol: as §1, with “Maize sprouts, placed on an agar layer in 24-well” for “24-well”, “plates” for “plates with artificial diet”, “spraying.” for “pipetting.”, “(6” for “(10”, “10” for “15”, “4” for “5”

[3] = system: Spodoptera littoralis (Egyptian cotton leaf worm); assay: Example B1: Spodoptera littoralis, sprayed cotton leaf discs; details: foliar, 72 h, application rate 200 ppm, L1 larvae, 3 days after infestation, read-out: control in at least one of the three categories (mortality, anti-feedancy or growth inhibition)
Protocol: Cotton leaf discs were placed on agar in 24-well microtiter plates and sprayed with aqueous test solutions prepared from 10,000 ppm DMSO stock solutions. After drying the leaf discs were infested with five L1 larvae. The samples were assessed for mortality, anti-feedant effect, and growth inhibition in comparison to untreated samples 3 days after infestation. Control of Spodoptera littoralis by a test sample is when at least one of mortality, anti-feedant effect, and growth inhibition is higher than the untreated sample.

[4] = system: Spodoptera littoralis (Egyptian cotton leaf worm); assay: Example B2: Spodoptera littoralis, systemic test via lettuce roots in agar; details: 144 h, application rate 12.5 ppm, Spodoptera eggs, 6 days after infestation, read-out: control in at least one of the three categories (mortality, anti-feedancy or growth inhibition)
Text: Test compounds were applied by pipette from 10,000 ppm DMSO stock solutions into 24-well plates and mixed with agar. Lettuce seeds were placed on the agar and the multi well plate was closed by another plate which contains also agar. After 7 days the roots have absorbed the compound and the lettuce has grown into the lid plate. The lettuce leafs were now cut off into the lid plate. Spodoptera eggs were pipetted through a plastic stencil on a humid gel blotting paper and the plate closed with it. The samples were assessed for mortality, anti-feedant effect and growth inhibition in comparison to untreated samples 6 days after infestation.
The following compounds gave an effect of at least 80% control in at least one of the three categories (mortality, anti-feedancy or growth inhibition) at an application rate of 12.5 ppm: P2, P3, P8, P9, P11 and P17, P19, P20, P22, P23, P25, P26, P28, P30, P31, P32, P33, P40, P42, P43, P44, P45, P46, P47, P48, P49, P50, P51, P52, P53, P54, P60 and P61.

[5] = system: Euschistus heros (neotropical brown stink bug); assay: Example B6: Euschistus heros, sprayed soybean leaf; details: 120 h, application rate 200 ppm, N-2 nymphs, 5 days after infestation
Text: Soybean leaf on agar in 24-well microtiter plates were sprayed with aqueous test solutions prepared from 10,000 ppm DMSO stock solutions. After drying the leaf were infested with N-2 nymphs.

CCS(=O)(=O)c1ccc(-c2cnc(C(=O)/N=c3\sc(C(F)(F)F)nn3C)c(S(=O)(=O)CC)c2)cc1 [Compound P4]
≥ 80%: percent effect (mortality or growth inhibition) at 200 ppm [1] | percent effect (mortality or growth inhibition) at 200 ppm [2] | percent control (mortality, anti-feedant effect or growth inhibition) at 200 ppm [3]

CCS(=O)(=O)c1cc(-n2ccc(C(F)(F)F)n2)cnc1C(=O)/N=c1\sc(C(F)(F)C(F)(F)F)nn1C [Compound P9, (N)-3-ethylsulfonyl-N-[3-methyl-5-(1,1,2,2,2-pentafluoroethyl)-1,3,4-thiadiazol-2-ylidene]-5-[3-(trifluoromethyl)pyrazol-1-yl]pyridine-2-carboxamide]
≥ 80%: percent effect (mortality or growth inhibition) at 200 ppm [1] | percent effect (mortality or growth inhibition) at 200 ppm [2] | percent control (mortality, anti-feedant effect or growth inhibition) at 12.5 ppm [4] | percent control (mortality, anti-feedant effect or growth inhibition) at 200 ppm [3]

CCSc1cc(-c2ccc(Cl)cc2)cnc1C(=O)/N=c1\sc(C(F)(F)C(F)(F)F)nn1C [Compound P12]
≥ 80%: percent effect (mortality or growth inhibition) at 200 ppm [2]

CCSc1cc(-n2ccc(C(F)(F)F)n2)cnc1C(=O)/N=c1\sc(C(F)(F)F)nn1C [Compound P13]
≥ 80%: percent effect (mortality or growth inhibition) at 200 ppm [2]

CCS(=O)(=O)c1cc(-n2ccc(C(F)(F)F)n2)cnc1C(=O)/N=c1\sc(C(F)(F)F)nn1C [Compound P14]
≥ 80%: percent effect (mortality or growth inhibition) at 200 ppm [1] | percent effect (mortality or growth inhibition) at 200 ppm [2] | percent control (mortality, anti-feedant effect or growth inhibition) at 200 ppm [3]

CCSc1cc(-c2ccc(C(F)(F)F)cc2)cnc1C(=O)N=c1ccc(SC(F)(F)F)cn1C [Compound P15]
≥ 80%: percent effect (mortality or growth inhibition) at 200 ppm [2]

CCS(=O)(=O)c1ccc(-c2ccc(C(F)(F)F)cc2)nc1C(=O)/N=c1\sc(C(F)(F)F)nn1C [Compound P21, (N)-3-ethylsulfonyl-N-[3-methyl-5-(trifluoromethyl)-1,3,4-thiadiazol-2-ylidene]-6-[4-(trifluoromethyl)phenyl]pyridine-2-carboxamide]
≥ 80%: percent control (mortality, anti-feedant effect or growth inhibition) at 200 ppm [3]

CCS(=O)(=O)c1cc(-c2ccc(OC(F)(F)F)cc2)cnc1C(=O)/N=c1\sc(C(F)(F)F)nn1C [Compound P22]
≥ 80%: percent effect (mortality or growth inhibition) at 200 ppm [1] | percent effect (mortality or growth inhibition) at 200 ppm [2] | percent control (mortality, anti-feedant effect or growth inhibition) at 12.5 ppm [4] | percent control (mortality, anti-feedant effect or growth inhibition) at 200 ppm [3]

CCS(=O)(=O)c1cc(-c2cccc(C#N)c2)cnc1C(=O)/N=c1\sc(C(F)(F)F)nn1C [Compound P23]
≥ 80%: mortality at 200 ppm [5] | percent effect (mortality or growth inhibition) at 200 ppm [1] | percent effect (mortality or growth inhibition) at 200 ppm [2] | percent control (mortality, anti-feedant effect or growth inhibition) at 12.5 ppm [4] | percent control (mortality, anti-feedant effect or growth inhibition) at 200 ppm [3]

CCS(=O)(=O)c1cc(-c2cc(Cl)cc(Cl)c2)cnc1C(=O)/N=c1\sc(C(F)(F)F)nn1C [Compound P24]
≥ 80%: percent control (mortality, anti-feedant effect or growth inhibition) at 200 ppm [3]

CCS(=O)(=O)c1cc(-c2ccc(F)cc2F)cnc1C(=O)/N=c1\sc(C(F)(F)F)nn1C [Compound P25]
≥ 80%: mortality at 200 ppm [5] | percent effect (mortality or growth inhibition) at 200 ppm [1] | percent effect (mortality or growth inhibition) at 200 ppm [2] | percent control (mortality, anti-feedant effect or growth inhibition) at 12.5 ppm [4] | percent control (mortality, anti-feedant effect or growth inhibition) at 200 ppm [3]

CCS(=O)(=O)c1cc(-c2cccc(F)c2)cnc1C(=O)/N=c1\sc(C(F)(F)F)nn1C [Compound P26]
≥ 80%: mortality at 200 ppm [5] | percent effect (mortality or growth inhibition) at 200 ppm [1] | percent effect (mortality or growth inhibition) at 200 ppm [2] | percent control (mortality, anti-feedant effect or growth inhibition) at 12.5 ppm [4] | percent control (mortality, anti-feedant effect or growth inhibition) at 200 ppm [3]

CCS(=O)(=O)c1cc(-c2cc(Cl)c(F)c(Cl)c2)cnc1C(=O)/N=c1\sc(C(F)(F)F)nn1C [Compound P27]
≥ 80%: percent effect (mortality or growth inhibition) at 200 ppm [1] | percent effect (mortality or growth inhibition) at 200 ppm [2] | percent control (mortality, anti-feedant effect or growth inhibition) at 200 ppm [3]

CCS(=O)(=O)c1cc(-c2ccc(C#N)cc2)cnc1C(=O)/N=c1\sc(C(F)(F)F)nn1C [Compound P28]
≥ 80%: mortality at 200 ppm [5] | percent effect (mortality or growth inhibition) at 200 ppm [1] | percent effect (mortality or growth inhibition) at 200 ppm [2] | percent control (mortality, anti-feedant effect or growth inhibition) at 12.5 ppm [4] | percent control (mortality, anti-feedant effect or growth inhibition) at 200 ppm [3]

CCS(=O)(=O)c1cc(-c2cccc(SC)c2)cnc1C(=O)/N=c1\sc(C(F)(F)F)nn1C [Compound P30]
≥ 80%: percent effect (mortality or growth inhibition) at 200 ppm [2] | percent control (mortality, anti-feedant effect or growth inhibition) at 12.5 ppm [4]

CCS(=O)(=O)c1cc(-c2ccc(F)cc2)cnc1C(=O)/N=c1\sc(C(F)(F)F)nn1C [Compound P32]
≥ 80%: mortality at 200 ppm [5] | percent effect (mortality or growth inhibition) at 200 ppm [1] | percent effect (mortality or growth inhibition) at 200 ppm [2] | percent control (mortality, anti-feedant effect or growth inhibition) at 12.5 ppm [4] | percent control (mortality, anti-feedant effect or growth inhibition) at 200 ppm [3]

CCS(=O)(=O)c1cc(-c2ccc(Cl)cc2Cl)cnc1C(=O)/N=c1\sc(C(F)(F)F)nn1C [Compound P34]
≥ 80%: mortality at 200 ppm [5] | percent effect (mortality or growth inhibition) at 200 ppm [1] | percent effect (mortality or growth inhibition) at 200 ppm [2] | percent control (mortality, anti-feedant effect or growth inhibition) at 200 ppm [3]

CCS(=O)(=O)c1cc(-c2cc(F)cc(F)c2)cnc1C(=O)/N=c1\sc(C(F)(F)F)nn1C [Compound P35]
≥ 80%: percent effect (mortality or growth inhibition) at 200 ppm [1] | percent effect (mortality or growth inhibition) at 200 ppm [2] | percent control (mortality, anti-feedant effect or growth inhibition) at 200 ppm [3]

CCS(=O)(=O)c1cc(-c2ccc(Cl)c(Cl)c2)cnc1C(=O)/N=c1\sc(C(F)(F)F)nn1C [Compound P36]
≥ 80%: percent effect (mortality or growth inhibition) at 200 ppm [1] | percent effect (mortality or growth inhibition) at 200 ppm [2] | percent control (mortality, anti-feedant effect or growth inhibition) at 200 ppm [3]

CCS(=O)(=O)c1cc(-c2cccc(C(F)(F)F)c2)cnc1C(=O)/N=c1\sc(C(F)(F)F)nn1C [Compound P37]
≥ 80%: percent effect (mortality or growth inhibition) at 200 ppm [1] | percent effect (mortality or growth inhibition) at 200 ppm [2] | percent control (mortality, anti-feedant effect or growth inhibition) at 200 ppm [3]

CCS(=O)(=O)c1cc(-c2ccc(SC)cc2)cnc1C(=O)/N=c1\sc(C(F)(F)F)nn1C [Compound P38]
≥ 80%: percent effect (mortality or growth inhibition) at 200 ppm [1] | percent effect (mortality or growth inhibition) at 200 ppm [2] | percent control (mortality, anti-feedant effect or growth inhibition) at 200 ppm [3]

CCS(=O)(=O)c1cc(-c2cc(Cl)ccn2)cnc1C(=O)/N=c1\sc(C(F)(F)F)nn1C [Compound P41]
≥ 80%: mortality at 200 ppm [5] | percent effect (mortality or growth inhibition) at 200 ppm [1] | percent effect (mortality or growth inhibition) at 200 ppm [2] | percent control (mortality, anti-feedant effect or growth inhibition) at 200 ppm [3]

CCS(=O)(=O)c1cc(-c2ncc(C(F)(F)F)s2)cnc1C(=O)/N=c1\sc(C(F)(F)F)nn1C [Compound P58]
≥ 80%: percent effect (mortality or growth inhibition) at 200 ppm [2] | percent control (mortality, anti-feedant effect or growth inhibition) at 200 ppm [3]

CCS(=O)(=O)c1cc(-c2cc(C#N)ccn2)cnc1C(=O)/N=c1\sc(C(F)(F)F)nn1C [Compound P62]
≥ 80%: mortality at 200 ppm [5] | percent effect (mortality or growth inhibition) at 200 ppm [1] | percent control (mortality, anti-feedant effect or growth inhibition) at 200 ppm [3]

CCS(=O)(=O)c1cc(-c2ncc(Cl)cn2)cnc1C(=O)/N=c1\sc(C(F)(F)F)nn1C [Compound P65]
≥ 80%: mortality at 200 ppm [5] | percent effect (mortality or growth inhibition) at 200 ppm [1] | percent effect (mortality or growth inhibition) at 200 ppm [2] | percent control (mortality, anti-feedant effect or growth inhibition) at 200 ppm [3]

CCS(=O)(=O)c1cc(-c2cc(F)cc(F)c2)cnc1C(=O)/N=c1\sc(C(F)(F)C(F)(F)F)nn1C [Compound P67]
≥ 80%: mortality at 200 ppm [5] | percent effect (mortality or growth inhibition) at 200 ppm [1] | percent effect (mortality or growth inhibition) at 200 ppm [2]

CCS(=O)(=O)c1cc(-c2ncc(C#N)cn2)cnc1C(=O)/N=c1\sc(C(F)(F)F)nn1C [Compound P68]
≥ 80%: mortality at 200 ppm [5] | percent effect (mortality or growth inhibition) at 200 ppm [1] | percent effect (mortality or growth inhibition) at 200 ppm [2]

CCS(=O)(=O)c1cc(-c2ccc(C#N)cn2)cnc1C(=O)/N=c1\sc(C(F)(F)F)nn1C [Compound P69]
≥ 80%: mortality at 200 ppm [5] | percent effect (mortality or growth inhibition) at 200 ppm [1] | percent effect (mortality or growth inhibition) at 200 ppm [2] | percent control (mortality, anti-feedant effect or growth inhibition) at 200 ppm [3]
